Assay results reported in US7855309B2, “Pesticide benzyloxy- and phenetyl-substituted phenyl-amidine derivatives” (Bayer CropScience AG, priority 2005, dated 2010).
Like-named read-outs stand apart in the source and are kept apart here.

Experiment: logP by HPLC on reversed-phase column (EEC Directive 79/831 Annex V.A8)
Format: physicochemical
Conditions: for chromatographic logP: reversed-phase HPLC column (C18)
Procedure: Temperature: 40° C.; Mobile phases: 0.1% aqueous formic acid and acetonitrile; linear gradient from 10% acetonitrile to 90% acetonitrile.
Calibration was carried out using unbranched alkan-2-ones (comprising 3 to 16 carbon atoms) with known logP values (determination of the logP values by the retention times using linear interpolation between two successive alkanones).

[1] = HPLC, C18, 40° C., 0.1% aqueous formic acid and acetonitrile
[2] = pH 2.3, read-out: log P (pH 2.3)

| SMILES | log P [1] | also measured |
| --- | --- | --- |
| Cc1cc(OC(C)c2ccc(F)cc2)c(C)cc1N=CN1CCCCC1 (racemic) [Compound 93] | 2.18 |  |
| Cc1cc(OC(C)c2ccccc2Cl)c(C)cc1N=CN1CCCCC1 (racemic) [Compound 130] | 2.36 |  |
| Cc1cc(OC(C)c2cccc(Cl)c2)c(C)cc1N=CN1CCCCC1 (racemic) [Compound 131] | 2.36 |  |
| Cc1cc(OC(C)c2ccc(Cl)cc2)c(C)cc1N=CN1CCCCC1 (racemic) [Compound 132] | 2.36 |  |
| CCN(C)/C=N/c1cc(C)c(/C=C/c2ccccc2F)cc1C (racemic) [Intermediate (VII-1)] |  | chromatographic logP [2]: 2.11 |
| CCN(C)C=Nc1cc(C)c(OCc2ccc(F)cc2)cc1C [Compound 2] | 1.99 |  |
| CCN(C)C=Nc1cc(C)c(OCc2cc3c(cc2Cl)OCO3)cc1C [Compound 5] | 2.05 |  |
| CCN(C)C=Nc1cc(C)c(OCc2ccc(C(C)(C)C)cc2)cc1C [Compound 8] | 2.67 |  |
| CCN(C)C=Nc1cc(C)c(OCc2ccc(C#N)cc2)cc1C [Compound 10] | 1.7 |  |
| CCN(C)C=Nc1cc(C)c(OCc2ccccc2F)cc1C [Compound 11] | 1.94 |  |
| CCN(C)C=Nc1cc(C)c(OCc2cccc(C=NOC)c2)cc1C [Compound 12] | 2.07 |  |
| CCN(C)C=Nc1cc(C)c(OCc2ccc(F)c(F)c2)cc1C [Compound 15] | 2.02 |  |
| CCN(C)C=Nc1cc(C)c(OCc2cccc(OC(F)(F)F)c2)cc1C [Compound 17] | 2.33 |  |
| CCN(C)C=Nc1cc(C)c(OCc2cc(C(F)(F)F)cc(C(F)(F)F)c2)cc1C [Compound 21] | 2.62 |  |
| CCN(C)C=Nc1cc(C)c(OCc2ccc(F)c(OC)c2)cc1C [Compound 22] | 1.92 |  |
| CCN(C)C=Nc1cc(C)c(OCc2ccc(OC(F)(F)F)cc2)cc1C [Compound 23] | 2.38 |  |
| CCN(C)C=Nc1cc(C)c(OCc2ccc(OC(F)F)cc2)cc1C [Compound 24] | 2.06 |  |
| CCN(C)C=Nc1cc(C)c(OCc2ccccc2OC(F)F)cc1C [Compound 26] | 2.03 |  |
| CCN(C)C=Nc1cc(C)c(OCc2ccc3nsnc3c2)cc1C [Compound 27] | 1.86 |  |
| CCN(C)C=Nc1cc(C)c(OCc2ccc(Cl)c(C(F)(F)F)c2)cc1C [Compound 28] | 2.47 |  |
| CCN(C)C=Nc1cc(C)c(OCc2ccc(C)cc2)cc1C [Compound 32] | 2.1 |  |
| CCN(C)C=Nc1cc(C)c(OCc2ccccc2Cl)cc1C [Compound 33] | 2.08 |  |

| SMILES | log P [1] | also measured |
| --- | --- | --- |
| CCN(C)C=Nc1cc(C)c(OCc2ccccc2C(F)(F)F)cc1C [Compound 34] | 2.14 |  |
| CCN(C)C=Nc1cc(C)c(CCc2cccc(Cl)c2)cc1C [Compound 36] | 2.2 |  |
| CCN(C)C=Nc1cc(C)c(CCc2ccccc2Cl)cc1C [Compound 37] | 2.26 |  |
| CCN(C)C=Nc1cc(C)c(CCc2ccccc2C)cc1C [Compound 38] | 2.38 |  |
| CCN(C)C=Nc1cc(C)c(CCc2ccc(OC)cc2)cc1C [Compound 39] | 2.04 |  |
| CCN(C)C=Nc1cc(C)c(CCc2ccc(Cl)cc2)cc1C [Compound 40] | 2.27 |  |
| CCN(C)C=Nc1cc(C)c(CCc2ccc(C)cc2)cc1C [Compound 41] | 2.23 |  |
| CCN(C)C=Nc1cc(C)c(CCc2ccc(F)cc2)cc1C [Compound 42] | 2.05 |  |
| CCN(C)C=Nc1cc(C)c(CCc2cccc(C(F)(F)F)c2)cc1C [Compound 43] | 2.41 |  |
| CCN(C)/C=N/c1cc(C)c(CCc2ccccc2F)cc1C [Compound 44, N-ethyl-N′-{4-[2-(2-fluorophenyl)ethyl]-2,5-dimethylphenyl}-N-methylimidoformamide] |  | chromatographic logP [2]: 2.23; chromatographic logP (HPLC, C18, 40° C., 0.1% aqueous formic acid and acetonitrile, read-out: log P): 2.23 |
| CCN(C)C=Nc1cc(C)c(CCc2ccccc2C(F)(F)F)cc1C [Compound 45] | 2.42 |  |
| CCN(C)C=Nc1cc(C)c(CCc2ccc(C(F)(F)F)cc2)cc1C [Compound 46] | 2.45 |  |
| CCN(C)C=Nc1cc(C)c(OCc2cc(C)c(C)cc2Cl)cc1C [Compound 47] | 2.42 |  |
| CCN(C)C=Nc1cc(C)c(OCc2c(F)cccc2F)cc1C [Compound 48] | 1.94 |  |
| C=Cc1cccc(COc2cc(C)c(N=CN(C)CC)cc2C)c1 [Compound 50] | 2.16 |  |
| CCN(C)C=Nc1cc(C)c(OCc2cccc3nsnc23)cc1C [Compound 51] | 1.92 |  |
| CCN(C)C=Nc1cc(C)c(OCc2ccc(C(=O)OC)cc2)cc1C [Compound 53] | 1.9 |  |
| CCN(C)C=Nc1cc(C)c(OCc2cccc(C(=O)OC(C)(C)C)c2)cc1C [Compound 54] | 2.42 |  |
| CCN(C)C=Nc1cc(C)c(OCc2ccc(Cl)cc2Cl)cc1C [Compound 55] | 2.33 |  |
| CCN(C)C=Nc1cc(C)c(OCc2cccc(C)c2)cc1C [Compound 57] | 2.11 |  |
| CCN(C)C=Nc1cc(C)c(OCc2ccccc2C#N)cc1C [Compound 58] | 1.78 |  |
| CCN(C)C=Nc1cc(C)c(OCc2cc(F)ccc2F)cc1C [Compound 59] | 1.99 |  |

| SMILES | log P [1] | also measured |
| --- | --- | --- |
| CCN(C)C=Nc1cc(C)c(OCc2cc(C)cc(C)c2)cc1C [Compound 60] | 2.26 |  |
| CCN(C)C=Nc1cc(C)c(OCc2ccc3ccccc3c2)cc1C [Compound 62] | 2.29 |  |
| CCN(C)C=Nc1cc(C)c(OCc2cc(OC)c(OC)cc2Cl)cc1C [Compound 63] | 1.99 |  |
| CCN(C)C=Nc1cc(C)c(OCc2ccccc2C)cc1C [Compound 66] | 2.06 |  |
| CCN(C)C=Nc1cc(C)c(OCc2ccccc2Br)cc1C [Compound 67] | 2.13 |  |
| CCN(C)C=Nc1cc(C)c(OCc2ccc(Br)cc2)cc1C [Compound 70] | 2.21 |  |
| CCN(C)C=Nc1cc(C)c(OCc2cccc(C)c2Cl)cc1C [Compound 71] | 2.29 |  |
| CCN(C)C=Nc1cc(C)c(OCc2cccc(C#N)c2)cc1C [Compound 74] | 1.83 |  |
| CCN(C)C=Nc1cc(C)c(OCc2ccc3c(c2)CCCC3)cc1C [Compound 75] | 2.55 |  |
| CCN(C)C=Nc1cc(C)c(OCc2cccc3ccccc23)cc1C [Compound 76] | 2.45 |  |
| CCN(C)C=Nc1cc(C)c(OCc2cccc(C)c2F)cc1C [Compound 77] | 2.16 |  |
| CCN(C)C=Nc1cc(C)c(OCc2ccc(OC)cc2)cc1C [Compound 78] | 1.92 |  |
| CCN(C)C=Nc1cc(C)c(OCc2ccc(OCc3ccccc3)cc2)cc1C [Compound 79] | 2.51 |  |
| CCN(C)C=Nc1cc(C)c(OCc2cccc(F)c2)cc1C [Compound 80] | 1.99 |  |
| CCN(C)C=Nc1cc(C)c(OCc2cccc(OC)c2)cc1C [Compound 81] | 1.97 |  |
| CCN(C)C=Nc1cc(C)c(OCc2ccc(C(C)C)cc2)cc1C [Compound 82] | 2.51 |  |
| CCN(C)C=Nc1cc(C)c(OCc2ccc(SC(F)(F)F)cc2)cc1C [Compound 83] | 2.61 |  |
| CCN(C)C=Nc1cc(C)c(OCc2ccc(SC)cc2)cc1C [Compound 84] | 2.16 |  |
| CCN(C)C=Nc1cc(C)c(OCc2cccc(I)c2)cc1C [Compound 85] | 2.42 |  |
| CCN(C)C=Nc1cc(C)c(OCc2c(C)cc(C)cc2C)cc1C [Compound 86] | 2.42 |  |
| CCN(C)C=Nc1cc(C)c(OCc2ccccc2I)cc1C [Compound 87] | 2.29 |  |
| CCN(C)C=Nc1cc(C)c(OCc2cccc(C)c2C)cc1C [Compound 89] | 2.29 |  |
